The results in this text go back to PubChem BioAssay AID256 (DTP/NCI, 2004).

The subject of the test is CD2F1 mice, L1210 leukemia ip, survival T/C. Briefly: NCI In Vivo Anticancer Drug Screen. Data for tumor model L1210 Leukemia (intraperitoneal) in CD2F1 (CDF1) mice. The conditions noted are these: higher = longer survival. In short, it runs like this: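 Read-out first: treated-group measurement over vehicle-control measurement, expressed as a ratio. Animals bore a transplanted tumor line and were dosed with compound or vehicle.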

The mark [1] stands for this setting: endpoint: mean survival time, dose: 100.0 mg/kg/injection, schedule: Q04DX003 (ip), vehicle: saline with Tween-80.
The mark [2] stands for this setting: endpoint: mean survival time, dose: 200.0 mg/kg/injection, schedule: Q04DX003 (ip), vehicle: saline with Tween-80.
Where [3] appears, read: endpoint: mean survival time, dose: 12.5 mg/kg/injection, schedule: Q04DX003 (ip), vehicle: saline with Tween-80.
[4] abbreviates: endpoint: mean survival time, dose: 25.0 mg/kg/injection, schedule: Q04DX003 (ip), vehicle: saline with Tween-80.
[5] abbreviates: endpoint: mean survival time, dose: 100.0 mg/kg/injection, schedule: Q01DX009 (ip), vehicle: saline with Tween-80.
The mark [6] stands for this setting: endpoint: mean survival time, dose: 100.0 mg/kg/injection, schedule: Q01DX001 (ip), vehicle: saline with Tween-80.
[7] abbreviates: endpoint: mean survival time, dose: 200.0 mg/kg/injection, schedule: Q01DX001 (ip), vehicle: saline with Tween-80.
Setting [8] is: endpoint: mean survival time, dose: 400.0 mg/kg/injection, schedule: Q01DX001 (ip), vehicle: saline with Tween-80.
Setting [9] is: endpoint: mean survival time, dose: 100.0 mg/kg/injection, schedule: Q04DX003 (ip), vehicle: saline.
[10] abbreviates: endpoint: mean survival time, dose: 200.0 mg/kg/injection, schedule: Q04DX003 (ip), vehicle: saline.
Setting [11] is: endpoint: mean survival time, dose: 400.0 mg/kg/injection, schedule: Q04DX003 (ip), vehicle: saline.

Several values for one entry are separate records, joined by “and”; a condition that tells them apart may be missing. Identical values can stand only once. Toxic doses and inconclusive results are not listed.

As for `CCCCCCCCN(C)N=Nc1ccccc1`, the T/C is 110 % of control (endpoint: mean survival time, dose: 79.0 mg/kg/injection, schedule: Q01DX009 (ip), vehicle: Klucel (hydroxypropylcellulose) (HPC)); 124 % of control (endpoint: mean survival time, dose: 177.0 mg/kg/injection, schedule: Q01DX009 (ip), vehicle: Klucel (hydroxypropylcellulose) (HPC)); 122 % of control (endpoint: mean survival time, dose: 266.0 mg/kg/injection, schedule: Q01DX009 (ip), vehicle: Klucel (hydroxypropylcellulose) (HPC)).

On to `CC(=O)NC1=C(Sc2ccc(C)cc2)C(=O)c2ccccc2C1=O`, for which the T/C runs as follows: (endpoint: mean survival time, dose: 75.0 mg/kg/injection, schedule: Q01DX001 (ip), vehicle: saline) 96 % of control; (endpoint: mean survival time, dose: 150.0 mg/kg/injection, schedule: Q01DX001 (ip), vehicle: saline) 98 % of control; (endpoint: mean survival time, dose: 300.0 mg/kg/injection, schedule: Q01DX001 (ip), vehicle: saline) 108 % of control.

In the case of `COC(COC(=O)N1CCN(C=O)CC1)C1=C(N2CC2)C(=O)C(C)=C(N2CC2)C1=O` (stereo unspecified), the T/C is 168 % of control (endpoint: median survival time, dose: 3.0 mg/kg/injection, schedule: Q01DX005 (ip), vehicle: saline); 160 % of control (endpoint: median survival time, dose: 3.6 mg/kg/injection, schedule: Q01DX005 (ip), vehicle: saline); 190 % of control and 191 % of control (endpoint: median survival time, dose: 6.0 mg/kg/injection, schedule: Q01DX005 (ip), vehicle: saline); 111 % of control (endpoint: median survival time, dose: 12.0 mg/kg/injection, schedule: Q01DX005 (ip), vehicle: saline).

With `CC(=O)c1ccc2c3c(ccc([N+](=O)[O-])c13)C(=O)OC2=O`, the T/C is 91 % of control under setting [1] and 95 % of control under setting [2].

Consider `CC(=O)OCC1OC(n2nc(-c3ccccc3)c(=O)n(-c3ccccc3)c2=O)C(OC(C)=O)C(OC(C)=O)C1OC(C)=O` (stereo unspecified), for which the T/C is, setting by setting: (endpoint: mean survival time, dose: 3.8 mg/kg/injection, schedule: Q01DX005 (ip), vehicle: water) 96 % of control; (endpoint: mean survival time, dose: 7.5 mg/kg/injection, schedule: Q01DX005 (ip), vehicle: water) 96 % of control; (endpoint: mean survival time, dose: 15.0 mg/kg/injection, schedule: Q01DX005 (ip), vehicle: water) 96 % of control; (endpoint: mean survival time, dose: 30.0 mg/kg/injection, schedule: Q01DX005 (ip), vehicle: water) 101 % of control; (endpoint: mean survival time, dose: 60.0 mg/kg/injection, schedule: Q01DX005 (ip), vehicle: water) 101 % of control.

For the molecule `CO[C@@]12[C@@H]3N[C@@H]3CN1C1=C(C(=O)C(NCCN3CCOCC3)=C(C)C1=O)[C@@H]2COC(N)=O`, the T/C reads like this: (endpoint: mean survival time, dose: 1.5 mg/kg/injection, schedule: Q01DX001 (ip), vehicle: water) 100 % of control; (endpoint: mean survival time, dose: 3.0 mg/kg/injection, schedule: Q01DX001 (ip), vehicle: water) 101 % of control; (endpoint: mean survival time, dose: 6.0 mg/kg/injection, schedule: Q01DX001 (ip), vehicle: water) 105 % of control; (endpoint: mean survival time, dose: 12.0 mg/kg/injection, schedule: Q01DX001 (ip), vehicle: water) 106 % of control; (endpoint: mean survival time, dose: 24.0 mg/kg/injection, schedule: Q01DX001 (ip), vehicle: water) 103 % of control.

For `COC(=O)C=P(c1ccccc1)(c1ccccc1)c1ccccc1`, the T/C by setting is: (endpoint: mean survival time, dose: 6.25 mg/kg/injection, schedule: Q01DX009 (ip), vehicle: saline with Tween-80) 97 % of control; (endpoint: mean survival time, dose: 6.25 mg/kg/injection, schedule: Q04DX003 (ip), vehicle: saline with Tween-80) 98 % of control; (endpoint: mean survival time, dose: 12.5 mg/kg/injection, schedule: Q01DX009 (ip), vehicle: saline with Tween-80) 103 % of control; under setting [3], 101 % of control; (endpoint: mean survival time, dose: 25.0 mg/kg/injection, schedule: Q01DX009 (ip), vehicle: saline with Tween-80) 97 % of control and 94 % of control; under setting [4], 95 % of control. The T/C (endpoint: mean survival time, dose: 50.0 mg/kg/injection, schedule: Q01DX009 (ip), vehicle: saline with Tween-80) was 95 % of control; the T/C under setting [5] was 100 % of control; the T/C under setting [1] was 97 % of control.

As to `CCCCCCCCC(=O)NCCCNC(=O)CCCCCCCC`, the T/C (endpoint: mean survival time, dose: 75.0 mg/kg/injection, schedule: Q04DX003 (ip), vehicle: saline) is 88 % of control; the T/C (endpoint: mean survival time, dose: 150.0 mg/kg/injection, schedule: Q04DX003 (ip), vehicle: saline) is 88 % of control; the T/C (endpoint: mean survival time, dose: 300.0 mg/kg/injection, schedule: Q04DX003 (ip), vehicle: saline) was 103 % of control.

Regarding `O=C1NC(=NC2CCCCC2)C2(CCN(CC3COc4ccccc4O3)CC2)N1c1ccccc1` (stereo unspecified), the T/C reads like this: under setting [6], 91 % of control; under setting [7], 95 % of control; under setting [8], 101 % of control.

Consider `NNC1CC2CCC1C2` (stereo unspecified), for which the T/C is, setting by setting: (endpoint: mean survival time, dose: 12.5 mg/kg/injection, schedule: Q01DX009 (ip), vehicle: saline) 95 % of control; (endpoint: mean survival time, dose: 25.0 mg/kg/injection, schedule: Q01DX009 (ip), vehicle: saline) 93 % of control.

With `COc1ccccc1NC(=O)Nc1cccc(Cl)c1`, the T/C runs as follows: under setting [5], 95 % of control; under setting [1], 94 % of control; (endpoint: mean survival time, dose: 200.0 mg/kg/injection, schedule: Q01DX009 (ip), vehicle: saline with Tween-80) 93 % of control; under setting [2], 97 % of control; (endpoint: mean survival time, dose: 400.0 mg/kg/injection, schedule: Q01DX009 (ip), vehicle: saline with Tween-80) 88 % of control; (endpoint: mean survival time, dose: 400.0 mg/kg/injection, schedule: Q04DX003 (ip), vehicle: saline with Tween-80) 86 % of control.

On to `Oc1ccc(CCNCc2cc3c(cc2Br)OCO3)cc1`, for which the T/C is, setting by setting: under setting [6], 104 % of control; under setting [7], 96 % of control; under setting [8], 104 % of control.

As to `Cc1cc(C)c(SC2c3ccccc3-c3ccccc32)c(C)c1`, the T/C by setting is: (endpoint: mean survival time, dose: 100.0 mg/kg/injection, schedule: Q01DX001 (ip), vehicle: saline) 94 % of control; under setting [9], 98 % of control; (endpoint: mean survival time, dose: 200.0 mg/kg/injection, schedule: Q01DX001 (ip), vehicle: saline) 95 % of control; under setting [10], 90 % of control; (endpoint: mean survival time, dose: 400.0 mg/kg/injection, schedule: Q01DX001 (ip), vehicle: saline) 94 % of control; under setting [11], 97 % of control.

As to `CCOC(=O)C#Cc1cccc(C(=O)OC)c1-c1c(I)cccc1C(=O)OC`, the T/C by setting is: (endpoint: median survival time, dose: 12.5 mg/kg/injection, schedule: Q04DX003 (ip), vehicle: saline with Tween-80) 100 % of control; (endpoint: median survival time, dose: 25.0 mg/kg/injection, schedule: Q04DX003 (ip), vehicle: saline with Tween-80) 100 % of control; (endpoint: median survival time, dose: 50.0 mg/kg/injection, schedule: Q04DX003 (ip), vehicle: saline with Tween-80) 88 % of control; (endpoint: median survival time, dose: 100.0 mg/kg/injection, schedule: Q04DX003 (ip), vehicle: saline with Tween-80) 88 % of control.

In the case of `CCc1cc(/C=C2\C(=O)C=Cc3ccccc32)c(O)s1`, the T/C runs as follows: (endpoint: mean survival time, dose: 25.0 mg/kg/injection, schedule: Q04DX002 (ip), vehicle: saline with Tween-80) 101 % of control; (endpoint: mean survival time, dose: 50.0 mg/kg/injection, schedule: Q04DX002 (ip), vehicle: saline with Tween-80) 96 % of control; (endpoint: mean survival time, dose: 100.0 mg/kg/injection, schedule: Q04DX002 (ip), vehicle: saline with Tween-80) 96 % of control.

`c1ccc2c(NC3=NCCO3)c3ccccc3nc2c1`: the T/C under setting [3] was 93 % of control and the T/C under setting [4] is 96 % of control.

With `CCCNC(C)=O`, the T/C runs as follows: under setting [9], 97 % of control; under setting [10], 97 % of control; under setting [11], 100 % of control.

In the case of `O=C1C=CC(=O)C=C1` (tested in a mixture with another compound), the T/C was 98 % of control (endpoint: mean survival time, dose: 1.0 mg/kg/injection, schedule: Q01DX009 (ip), vehicle: saline sonified); 97 % of control (endpoint: mean survival time, dose: 1.0 mg/kg/injection, schedule: Q04DX003 (ip), vehicle: saline with Tween-80); 94 % of control (endpoint: mean survival time, dose: 2.0 mg/kg/injection, schedule: Q01DX009 (ip), vehicle: saline sonified); 95 % of control (endpoint: mean survival time, dose: 2.0 mg/kg/injection, schedule: Q04DX003 (ip), vehicle: saline with Tween-80); 98 % of control (endpoint: mean survival time, dose: 3.0 mg/kg/injection, schedule: Q01DX009 (ip), vehicle: saline sonified); 95 % of control (endpoint: mean survival time, dose: 3.0 mg/kg/injection, schedule: Q04DX003 (ip), vehicle: saline with Tween-80). Also, the T/C by setting is: (endpoint: mean survival time, dose: 6.0 mg/kg/injection, schedule: Q01DX009 (ip), vehicle: saline sonified) 90 % of control; (endpoint: mean survival time, dose: 6.0 mg/kg/injection, schedule: Q04DX003 (ip), vehicle: saline with Tween-80) 97 % of control.

As to `Cc1ccc(NCC(=O)O)c([N+](=O)[O-])c1`, the T/C is, setting by setting: under setting [1], 95 % of control; under setting [2], 103 % of control.
